According to publication PMC11435058, “Synthesis of New Thiazole-Privileged Chalcones as Tubulin Polymerization Inhibitors with Potential Anticancer Activities” (Pharmaceuticals, 2024):

Key:
[1] = tested on: SK-MEL-5; assay: NCI-60 anticancer screen (SRB; single dose and five doses); details: Homo sapiens
[2] = tested on: MOLT-4; assay: as above; details: Homo sapiens
[3] = tested on: SF-268; assay: as above; details: Homo sapiens
[4] = tested on: HL-60(TB); assay: as above; details: Homo sapiens
[5] = tested on: SK-OV-3; assay: as above; details: Homo sapiens
[6] = tested on: MCF7; assay: as above; details: Homo sapiens
[7] = tested on: HS 578T; assay: as above; details: Homo sapiens
[8] = tested on: SF-539; assay: as above; details: Homo sapiens
[9] = tested on: MDA-MB-231/ATCC; assay: as above; details: Homo sapiens
[10] = tested on: MALME-3M; assay: as above; details: Homo sapiens
[11] = tested on: SNB-19; assay: cells; details: Homo sapiens
[12] = tested on: CAKI-1; assay: NCI-60 anticancer screen (SRB; single dose and five doses); details: Homo sapiens
[13] = tested on: SK-MEL-2; assay: as above; details: Homo sapiens
[14] = tested on: M14; assay: as above; details: Homo sapiens
[15] = tested on: NCI-H522; assay: as above; details: Homo sapiens
[16] = tested on: OVCAR-8; assay: as above; details: Homo sapiens
[17] = tested on: 60 human tumor cell lines panel; assay: NCI-60 anticancer screen, whole panel (means and ranges over the cell lines); type: cell-based
[18] = tested on: MDA-MB-468; assay: NCI-60 anticancer screen (SRB; single dose and five doses); type: cell-based, human
Description: The methodology of the NCI anticancer screening has been described in detail elsewhere (http://www.dtp.nci.nih.gov). For detailed information, see Appendix A in the Supplementary Materials.
4.2.1. Screening of the anticancer activity against a panel of 60 cell Lines.
The methodology of the NCI anticancer screening has been described in detail elsewhere (http://www.dtp.nci.nih.gov.) Briefly, the primary anticancer assay was performed at approximately 60 human tumor cell lines panel derived from nine neoplastic diseases, in accordance with the protocol of the Drug Evaluation Branch, National Cancer Institute, Bethesda. Tested compounds were added to the culture at a single concentration (10μM) and the cultures were incubated for 48 h. End -point determinations were made with a protein binding dye, SRB. Results for each tested compound was reported as the percent of growth of the treated cells when compared to the untreated control cells. The percentage growth was evaluated spectrophotometrically versus controls not treated with test agents. […]

[19] = tested on: RXF 393; assay: as above; details: Homo sapiens
[20] = tested on: UACC-257; assay: as above; details: Homo sapiens
[21] = tested on: UO-31; assay: as above; details: Homo sapiens
[22] = tested on: UACC-62; assay: as above; details: Homo sapiens
[23] = tested on: IGROV1; assay: as above; details: Homo sapiens
[24] = tested on: U251; assay: as above; details: Homo sapiens
[25] = tested on: SW-620; assay: as above; details: Homo sapiens
[26] = 48 h, read-out: Growth Percentage
[27] = five doses, mean graph midpoint over all cell lines

SMILES: Cc1[nH]c(=S)sc1C(=O)/C=C/c1cccc(Cl)c1 [2e, (E)-3-(3-Chlorophenyl)-1-(4-Methyl-2-Thioxo-2,3-Dihydrothiazol-5-yl)Prop-2-En-1-One]
- GI50 ([1]; SK-MEL-5): 4.79 µM
- IC50 ([1]; SK-MEL-5): 9.12 µM
- activity at 10 µM ([1]; SK-MEL-5, 48 h, read-out: Growth Percentage): 16.1%
- CC50 ([1]; SK-MEL-5, read-out: LC50): 41.7 µM
- IC (TGI) ([1]; SK-MEL-5, read-out: TGI): 17 µM
- GI50 ([2]; MOLT-4): 2.82 µM
- IC50 ([2]; MOLT-4): 4.27 µM
- activity at 10 µM ([2]; MOLT-4, 48 h, read-out: Growth Percentage): 19.8%
- CC50 ([2]; MOLT-4, read-out: LC50): > 100 µM
- IC (TGI) ([2]; MOLT-4, read-out: TGI): > 100 µM
- GI50 ([3]; SF-268): 3.72 µM
- IC50 ([3]; SF-268): 7.59 µM
- activity at 10 µM ([3]; SF-268, 48 h, read-out: Growth Percentage): 51.8%
- CC50 ([3]; SF-268, read-out: LC50): 97.7 µM
- IC (TGI) ([3]; SF-268, read-out: TGI): 17 µM
- GI50 ([4]; HL-60): 2.24 µM
- IC50 ([4]; HL-60): 4.27 µM
- activity at 10 µM ([4]; HL-60, 48 h, read-out: Growth Percentage): 25.3%
- CC50 ([4]; HL-60, read-out: LC50): > 100 µM
- IC (TGI) ([4]; HL-60, read-out: TGI): 7.08 µM
- GI50 ([5]; SK-OV-3): 17.4 µM
- IC50 ([5]; SK-OV-3): 51.3 µM
- activity at 10 µM ([5]; SK-OV-3, 48 h, read-out: Growth Percentage): 59.9%
- CC50 ([5]; SK-OV-3, read-out: LC50): > 100 µM
- IC (TGI) ([5]; SK-OV-3, read-out: TGI): > 100 µM
- GI50 ([6]; MCF7): 3.31 µM
- IC50 ([6]; MCF7): 8.13 µM
- activity at 10 µM ([6]; MCF7, 48 h, read-out: Growth Percentage): 7.9%
- CC50 ([6]; MCF7, read-out: LC50): 37.1 µM
- IC (TGI) ([6]; MCF7, read-out: TGI): 12.3 µM
- GI50 [7]: 3.09 µM
- IC50 [7]: > 100 µM
- activity at 10 µM [7, 26]: 47.2%
- CC50 ([7]; read-out: LC50): > 100 µM
- IC (TGI) ([7]; read-out: TGI): 85.1 µM
- GI50 ([8]; SF-539): 2 µM
- IC50 ([8]; SF-539): 3.63 µM
- activity at 10 µM ([8]; SF-539, 48 h, read-out: Growth Percentage): -10.7%
- IC (TGI) ([8]; SF-539, read-out: TGI): 4.07 µM
- GI50 ([9]; MDA-MB-231): 2.45 µM
- IC50 ([9]; MDA-MB-231): 6.17 µM
- activity at 10 µM ([9]; MDA-MB-231, 48 h, read-out: Growth Percentage): -0.43%
- CC50 ([9]; MDA-MB-231, read-out: LC50): 39.8 µM
- IC (TGI) ([9]; MDA-MB-231, read-out: TGI): 6.92 µM
- GI50 [10]: 2.24 µM
- IC50 [10]: 5.13 µM
- activity at 10 µM [10, 26]: 86.9%
- CC50 ([10]; read-out: LC50): 50.1 µM
- IC (TGI) ([10]; read-out: TGI): 5.75 µM
- IC50 ([11]; SNB-19): 17 µM
- CC50 ([11]; SNB-19, read-out: LC50): 49 µM
- IC (TGI) ([11]; SNB-19, read-out: TGI): 21.4 µM
- GI50 ([12]; CAKI-1): 4.68 µM
- IC50 ([12]; CAKI-1): 15.5 µM
- activity at 10 µM ([12]; CAKI-1, 48 h, read-out: Growth Percentage): 23.9%
- CC50 ([12]; CAKI-1, read-out: LC50): 69.2 µM
- IC (TGI) ([12]; CAKI-1, read-out: TGI): 20.9 µM
- GI50 ([13]; SK-MEL-2): 10.5 µM
- IC50 ([13]; SK-MEL-2): 29.5 µM
- activity at 10 µM ([13]; SK-MEL-2, 48 h, read-out: Growth Percentage): 32.1%
- CC50 ([13]; SK-MEL-2, read-out: LC50): 70.8 µM
- IC (TGI) ([13]; SK-MEL-2, read-out: TGI): 27.5 µM
- GI50 ([14]; M14): 2.88 µM
- IC50 ([14]; M14): 4.17 µM
- activity at 10 µM ([14]; M14, 48 h, read-out: Growth Percentage): 40.2%
- IC (TGI) ([14]; M14, read-out: TGI): 9.55 µM
- GI50 ([15]; NCI-H522): 4.57 µM
- IC50 ([15]; NCI-H522): 11.5 µM
- activity at 10 µM ([15]; NCI-H522, 48 h, read-out: Growth Percentage): 22%
- CC50 ([15]; NCI-H522, read-out: LC50): 45.7 µM
- IC (TGI) ([15]; NCI-H522, read-out: TGI): 17.4 µM
- GI50 ([16]; OVCAR-8): 2.69 µM
- IC50 ([16]; OVCAR-8): 3.89 µM
- activity at 10 µM ([16]; OVCAR-8, 48 h, read-out: Growth Percentage): 10.4%
- CC50 ([16]; OVCAR-8, read-out: LC50): > 100 µM
- IC (TGI) ([16]; OVCAR-8, read-out: TGI): 7.59 µM
- activity at 10 µM ([17]; Homo sapiens, 48 h, range over the cell lines, dose of 10 μM, read-out: growth percentages against most of the tested cells (lowest to highest)): -26.1 to 98%
- Log10GI50 _MID [17, 27]: -5.17 Molar
- Log10LC50 _MID [17, 27]: -4.26 Molar
- Log10TGI _MID [17, 27]: -4.66 Molar
- activity at 10 µM ([18]; Homo sapiens, 48 h, MDA-MB-468, dose of 10 μM, read-out: Growth Percentage): -7.12%
- IC50 ([18]; Homo sapiens, MDA-MB-468, MDA-MB-468, Breast Cancer, five dose): 12.6 µM
- GI50 ([18]; Homo sapiens, MDA-MB-468, Breast Cancer, five dose): 3.8 µM
- CC50 ([18]; Homo sapiens, MDA-MB-468, Breast Cancer, five dose, read-out: LC50 (the source's name)): 46.8 µM
- TGI ([18]; MDA-MB-468, Breast Cancer, five dose): 15.85 µM
- GI50 ([19]; RXF 393): 1.91 µM
- IC50 ([19]; RXF 393): 5.13 µM
- activity at 10 µM ([19]; RXF 393, 48 h, read-out: Growth Percentage): 10.7%
- CC50 ([19]; RXF 393, read-out: LC50): 10 µM
- IC (TGI) ([19]; RXF 393, read-out: TGI): 4.37 µM
- GI50 ([20]; UACC-257): 3.63 µM
- IC50 ([20]; UACC-257): 9.77 µM
- activity at 10 µM ([20]; UACC-257, 48 h, read-out: Growth Percentage): 52.7%
- CC50 ([20]; UACC-257, read-out: LC50): 63.1 µM
- IC (TGI) ([20]; UACC-257, read-out: TGI): 14.8 µM
- GI50 ([21]; UO-31): 1.55 µM
- IC50 ([21]; UO-31): 2.88 µM
- activity at 10 µM ([21]; UO-31, 48 h, read-out: Growth Percentage): 34.3%
- IC (TGI) ([21]; UO-31, read-out: TGI): 3.09 µM
- GI50 ([22]; UACC-62): 2.34 µM
- IC50 ([22]; UACC-62): 4.17 µM
- activity at 10 µM ([22]; UACC-62, 48 h, read-out: Growth Percentage): 30%
- IC (TGI) ([22]; UACC-62, read-out: TGI): 8.71 µM
- GI50 ([23]; IGROV-1): 2.45 µM
- IC50 ([23]; IGROV-1): 4.17 µM
- activity at 10 µM ([23]; IGROV-1, 48 h, read-out: Growth Percentage): 34%
- CC50 ([23]; IGROV-1, read-out: LC50): > 100 µM
- IC (TGI) ([23]; IGROV-1, read-out: TGI): 6.46 µM
- GI50 ([24]; U-251): 1.91 µM
- IC50 ([24]; U-251): 3.31 µM
- activity at 10 µM ([24]; U-251, 48 h, read-out: Growth Percentage): 12.1%
- CC50 ([24]; U-251, read-out: LC50): 7.24 µM
- IC (TGI) ([24]; U-251, read-out: TGI): 3.72 µM
- GI50 ([25]; SW-620): 1.91 µM
- IC50 ([25]; SW-620): 3.16 µM
- activity at 10 µM ([25]; SW-620, 48 h, read-out: Growth Percentage): 8.6%
- CC50 ([25]; SW-620, read-out: LC50): 7.59 µM
- IC (TGI) ([25]; SW-620, read-out: TGI): 3.8 µM
